For one assay, the system named is tumor cell lines. As to conditions: cited from earlier work.
For assay [1], the system named is Human breast cancer MCF-7 cells. Description: Cell cycle analysis by flow cytometry. The format is cell-based. Particulars: MCF-7 cells (FIG. 10(c) to (e)). (A flow cytometer gives signals particle by particle.)
A further assay deals with Human glioma Hs683 cells. As to the kind of experiment: Inhibition of cancer cell growth. The class given is cell-based. As to conditions: Hs683 cells, 1.0, 2.0 and 4.0 μg/mL, 72 hours (FIG. 8). The protocol: Their results were counted by a trypan blue exclusion assay (see FIG. 8(e)).
(§1) Five cancer cell lines, Rat C6 giloma cells, Human breast cancer MCF-7 cells, Human glioma Hs683 cells, Human glioblastoma 05-MG cells, and Human lung cancer A549 cells, were cultured in Dulbecco's modified Eagle's medium (DMEM; Gibco) containing 10% fetal bovine serum (FBS) and 1% penicillin/streptomycin, and were kept at 37° C. in a humidified atmosphere of 95% air and 5% CO2. Human breast cancer. MDA-MB-231 cells were cultured in L-15 medium (Gibco) containing 10% fetal bovine serum (FBS), 1% penicillin/streptomycin, and 2 mM glutamine, and were maintained at 37° C. in a humidified atmosphere of 95% air and 0% CO2. For these experiments, the cells were seeded in 6-well plates or a 60-mm dish. After 24 hours, the cells were treated with different concentrations of the various compounds. […] Human glioblastoma 05-MG cells were treated with NBM-C-BCX-OS01 (1.0, 2.0, 4.0 μg/mL) and NBM-C-BMX-OS01 (1.0, 2.0, 4.0 μg/mL) for 72 hours (see FIG. 5(e)). […] The results were counted by a trypan blue exclusion assay (see FIG. 6(b)).

Assay [2] relates to Human lung cancer A549 cells. Description: Cell cycle analysis by flow cytometry (propidium iodide). The format is cell-based. Particulars: A549 cells (FIG. 10(a), (b)). As to the method: Human lung cancer A549 cells, Human glioma Hs683 cells and Human glioblastoma 05-MG cells were seeded 1×10^6 cells in a 100-mm dish. After 24 hours of incubation in DMEM+10% BSA, Human lung cancer A549 cells were treated with NBM-HB-OS01 (2.5, 5.0, 7.5, 10.0 μg/mL) for 24 hours and were treated with NBM-C-BCX-OS01 (2.5, 5.0, 7.5 μg/mL) and NBM-C-BMX-OS01 (2.5, 5, 7.5 μg/mL) for 72 hours. Human glioblastoma 05-MG cells were treated with NBM-C-BCX-OS01 (1.0, 2.0, 4.0 μg/mL) and NBM-C-BMX-OS01 (1.0, 2.0, 4.0 μg/mL) for 72 hours. Human glioma Hs683 cells were treated with NBM-C-BCX-OS01 (1.0, 2.0, 4.0 μg/mL). For cell cycle analysis, cells were fixed in 80% ethanol for 1 hour (or overnight) at −20° C. and then incubated with 2 μg/mL RNase A for 30 minutes at 37° C. Cells were stained with propidium iodide ([…] PI) in PBS and analyzed using a Becton Dickinson flow cytometer, BD FACScan and CellQuest acquisition and analysis programs. […] Human glioma Hs683 cells were treated with NBM-C-BCX-OS01 (1.0, 2.0, 4.0 μg/mL) for 72 hours.

The subject of assay [3] is human breast cancer MDA-MB-231 cells. Description: Inhibition of cancer cell growth and change of morphology. The format is cell-based. Particulars: for inhibition of MDA-MB-231 cells: MDA-MB-231 cells (FIG. 9); for change of cell morphology / inhibition of cell growth: MDA-MB-231 cells; for change of cell morphology: 72 hours (FIG. 6(a)); for inhibition of cell growth: various concentrations, 72 hrs (FIG. 6(a)). As to the method: Their results were counted by a trypan blue exclusion assay (see FIG. 9(f)).
as §1

A further assay has as its system Rat C6 glioma cells. The description is as above. The format is cell-based. As to conditions: Rat C6 glioma cells. The protocol:
(§2) Three cancer cell lines, Rat C6 giloma cells, Human breast cancer MCF-7 cells, and Human lung cancer A549 cells, were cultured in Dulbecco's modified Eagle's medium (DMEM; Gibco) containing 10% fetal bovine serum (FBS) and 1% penicillin/streptomycin. All three cell lines were maintained at 37° C. in a humidified atmosphere of 95% air and 5% CO2. For the experiments, the cells were seeded in 6-well plates. After 24 hours, the cells were treated with different concentrations of the various compounds.
as §1

The subject of assay [4] is Human lung cancer A549 cells. Description: Inhibition of cancer cell growth. The format is cell-based. As to conditions: 72 hrs, NBM-C-BX-OS01 7.5, others 2.5, 5.0, 7.5 μg/mL (FIG. 5(b)). As to the method:
as §2, §1

In assay [5] the test system is acetyl-Histone H3, acetyl-Histone H4, acetyl-tubulin, p21, CTPS, Gelsolin, Hsp90, acetyl-Hsp90 in Human glioma Hs683 cells. As to the kind of experiment: Immunoblotting of histones and HDAC associated proteins. The format is cell-based. As to conditions: Hs683 cells, 1.0, 2.0, 4.0 μg/mL. The protocol:
Human glioma Hs683 cells were seeded at 5×10^5 cells in a 60-mm dish or 1×10^6 cells in a 100-mm dish. After 24 hours, Human glioma Hs683 cells were treated with different doses of NBM-C-BCX-OS01, NBM-C-BMX-OS01 (1.0, 2.0, 4.0 μg/mL), and vorinostat (SAHA, 5 μM) for 72 hours. Lysates of Hs683 cells were prepared for the immunoblotting of acetyl-Histone H3 (Cell Signaling Technology, Inc.), acetyl-Histone H4 (Upstate), acetyl-tubulin (Sigma Chemical Co.), p21 (BD Pharmingen Technology, Inc.), CTPS (ABNOVA TAIWAN Corporation), Gelsolin (Sigma Chemical Co.), Hsp90 (Cell Signaling Technology, Inc.), acetyl-Hsp90 (ROCKLAND, Inc.) and actin (Sigma Chemical Co.). Proteins were detected by chemiluminescence (ECL, Amersham). […] SAHA was used as a positive control and β-actin as an internal control (see FIG. 7(b)).
In general terms: Immunoblotting shows a protein as a band on a membrane.

Assay [6] has as its system Human glioblastoma 05-MG cells. Description: Inhibition of cancer cell growth. The class given is cell-based. As to conditions: 05-MG cells, 1.0, 2.0, 4.0 μg/mL, 72 hrs (FIG. 5(e)). The protocol:
as §1

“Also recorded” adds a separate entry of the source.

Turning to `Cc1[nH]c2ccccc2c1CCNCc1ccc(/C=C/C(=O)NO)cc1` [LBH589], the “growth inhibition and regression by triggering apoptosis” value in the assay with tumor cell lines was “induces growth inhibition and regression”.

`COc1ccc(/C=C\C(=O)NO)c(OCc2ccc(Br)cc2)c1CC=C(C)C` [NBM-C-BBX-OS01, (Z)-2-(4-Bromobenzoxy)-3-prenyl-4-methoxy-N-hydroxycinamide]: the “cell cycle arrest phase” value in assay [1] is “arrested the human breast cancer MCF-7 cells on the S and G2/M phases”; in [2], “arrested the human lung cancer A549 cells on the S and G2/M phases”. In addition, in the assay with Human glioma Hs683 cells, the “inhibition of cell growth” value is given as “inhibition of cell growth”. Further, the “inhibition of MDA-MB-231 cells” value in assay [3] was “inhibition of human breast cancer MDA-MB-231 cells”.

Turning to `COc1ccc(/C=C/C(=O)Nc2ccccc2N)c(OCc2ccc(Cl)cc2)c1CC=C(C)C` [NBM-C-BCA-OS01, (E)-2-(4-Chlorobenzoxy)-3-prenyl-4-methoxy-N-(2-aminophenyl) cinamide], the “inhibition of cell growth” value is reported as “inhibited the Rat C6 glioma cell growth” in the assay with Rat C6 glioma cells (7.5 μg/mL, 48 hrs (FIG. 4)) and “inhibited the Rat C6 glioma cells growth” with Rat C6 glioma cells (7.5 μg/mL, 48 hrs (FIG. 4), listed as NBM-C-BA-OS01 (17d)).

Regarding `COc1ccc(/C=C\C(=O)NO)c(OCc2ccc(F)cc2)c1CC=C(C)C` [NBM-C-BFX-OS01, (Z)-2-(4-Fluorobenzoxy)-3-prenyl-4-methoxy-N-hydroxycinamide], in [3], the “change of cell morphology” value was “changed the morphology of the cells” and the “inhibition of cell growth” value is on record as “inhibition of the cell growth of human breast cancer MDA-MB-231 cells was observed; also recorded: inhibited the growth”.

`COc1ccc(COc2c(/C=C/C(=O)Nc3ccccc3N)ccc(OC)c2CC=C(C)C)cc1` [NBM-C-BMA-OS01, (E)-2-(4-Methoxyhenzoxy)-3-prenyl-4-methoxy-N-(2-aminophenyl) cinamide]: the “inhibition of cell growth” value with Rat C6 glioma cells (7.5 μg/mL, 48 hrs (FIG. 4)) is on record as “inhibited the Rat C6 glioma cell growth”.

Consider `COc1ccc(COc2c(/C=C\C(=O)NO)ccc(OC)c2CC=C(C)C)cc1` [NBM-C-BMX-OS01, (Z)-2-(4-Methoxyhenzoxy)-3-prenyl-4-methoxy-N-hydroxycinamide], for which the “inhibition of cell growth” value in the assay on Rat C6 glioma cells (24 hrs, NBM-C-BA-OS01 5 μg/mL, others 2.5, 5.0 μg/mL (FIG. 5(a))) is listed as “inhibited the cell growth”. In addition, in the assay with Rat C6 glioma cells (various concentrations, 24 hrs (FIG. 5(c))), the “inhibition of cell growth, similar to dose-dependent A549 result” value is on record as “the results were similar”. In addition, the cell growth inhibition entry in assay [4] is given as “induced A549 cells growth inhibition in a dose-dependent manner; also recorded: induced A549 cell growth inhibition in dose-dependent amounts”. In addition, in [3], the “change of cell morphology” value was “changed the morphology of the cells” and the “inhibition of cell growth” value was “inhibition of the cell growth of human breast cancer MDA-MB-231 cells was observed; also recorded: inhibited the growth”. Besides, in assay [5] (72 hrs (FIG. 7(a))), the CTPS protein level entry is “decreased in a dose-dependent manner”, the Hsp90 protein level entry is “decreased in a dose-dependent manner”, the “induction (increase) of acetylated Hsp90 protein” value is “detected in a dose-dependent manner; also recorded: observed in a dose-dependent manner” and the “induction (increase) of gelsolin protein” value is given as “detected in a dose-dependent manner; also recorded: observed in a dose-dependent manner”. In [5] (72 hrs (FIG. 7(b))), the “expression of acetylated Histone H3” value was “significantly increased in a dose-dependent manner; also recorded: induced in a dose-dependent manner”, the “expression of acetylated Histone H4” value is recorded as “significantly increased in a dose-dependent manner; also recorded: induced in a dose-dependent manner”, the “expression of acetylated tubulin” value is given as “significantly increased in a dose-dependent manner; also recorded: induced in a dose-dependent manner” and the “expression of p21” value was “significantly increased in a dose-dependent manner; also recorded: induced in a dose-dependent manner”. Further, the cell growth inhibition result in assay [6] is “Cell growth inhibition was observed”.

For the compound `CC(C)=CCOc1c(OCc2ccc(Cl)cc2)c(/C=C\C(=O)NO)cc2ccoc12` [NBM-I-BCX-OS01], the “cell cycle arrest phase” value was “arrested the human breast cancer MCF-7 cells on the S and G2/M phases” in assay [1]; “arrested the human lung cancer A549 cells on the S and G2/M phases” in [2]. Besides, in the assay with Human glioma Hs683 cells, the “inhibition of cell growth” value is given as “inhibition of cell growth”. The “inhibition of MDA-MB-231 cells” value in assay [3] is “inhibition of human breast cancer MDA-MB-231 cells”.

For the compound `COc1ccc(/C=C/C(=O)NO)c(OCc2ccc(Br)cc2)c1CC=C(C)C` [NBM-T-BBX-OS01, (E)-2-(4-Bromobenzoxy)-3-prenyl-4-methoxy-N-hydroxy cinamide], the “cell cycle arrest phase” value is “arrested the human breast cancer MCF-7 cells on the S and G2/M phases” in [1]; “arrested the human lung cancer A549 cells on the S and G2/M phases” in [2]. Also, the “inhibition of cell growth” value with Human glioma Hs683 cells was “inhibition of cell growth”. Further, the “inhibition of MDA-MB-231 cells” value in assay [3] is “inhibition of human breast cancer MDA-MB-231 cells”.

On to `COc1ccc(/C=C/C(=O)NO)c(OCc2ccc(Cl)cc2)c1CC=C(C)C` [NBM-T-BCX-OS01, (E)-2-(4-Chlorobenzoxy)-3-prenyl-4-methoxy-N-hydroxy cinamide], for which, in [1], the “cell cycle arrest phase” value is “arrested the human breast cancer MCF-7 cells on the S and G2/M phases”. Besides, the “inhibition of cell growth” value in the assay on Human glioma Hs683 cells is given as “inhibition of cell growth”. The “inhibition of MDA-MB-231 cells” value in [3] was “inhibition of human breast cancer MDA-MB-231 cells”.

`COc1ccc(COc2c(/C=C/C(=O)NO)ccc(OC)c2CC=C(C)C)cc1` [NBM-T-BMX-OS01, (E)-2-(4-Methoxyhenzoxy)-3-prenyl-4-methoxy-N-hydroxy cinamide]: the “cell cycle arrest phase” value was “arrested the human breast cancer MCF-7 cells on the S and G2/M phases” in assay [1]; “arrested the human lung cancer A549 cells on the S and G2/M phases” in assay [2]. Also, in the assay with Human glioma Hs683 cells, the “inhibition of cell growth” value is “inhibition of cell growth”. Moreover, in [3], the “inhibition of MDA-MB-231 cells” value was “inhibition of human breast cancer MDA-MB-231 cells”.

(Values after US8318801B2, “Cinnamic compounds and derivatives therefrom for the inhibition of histone deacetylase” (Naturewise Biotech & Medicals Corporation, priority 2009, dated 2012).)
